Measured values as given in paper PMC5201331, “Subchronic Toxicities of HZ1006, a Hydroxamate-Based Histone Deacetylase Inhibitor, in Beagle Dogs and Sprague-Dawley Rats” (International Journal of Environmental Research and Public …, 2016).

Tested on: Beagle dogs
Experiment: Subchronic toxicity test in Beagle dogs: serum biochemistry
Assay type: in vivo
Conditions: dogs
Experimental: HZ1006 was administered orally to dogs (four/sex/group) at doses of 80, 40, 20, 5 and 0 (control) mg/kg/day, and the dosage volume was 2 mL/kg. The dogs received test doses with the exact amounts on a weekly basis based on current body weights. […] The other dogs in the above groups were dissected on the planned days. For the other groups, half of the dogs were anatomized on d28 and the remaining half on d42.
The following indexes were examined for the dogs used in the study, twice during the pre-dosage period and on d14, d28 and d42. The following parameters were evaluated on d28 and d42 for the rats in the study:
The animal blood samples were collected in the tubes containing the coagulator and centrifuged at 500 g for 10 min; the supernatant was then collected into a new tube. The serum biochemistry indexes included the following: alanine aminotransferase (ALT), alkaline phosphatase (ALP), aspartate aminotransferase (AST), blood urea (BU), lactate dehydrogenase (LDH), total bilirubin (TBIL), creatinine (Crea), albumin (ALB), total protein (TP), triglycerides (TG), total cholesterol (TCH), γ-glutamyltranspeptidase (g-GT), glucose (GLU), creatine phosphokinase (CPK), uric acid (UA), phosphorus (P), and calcium (Ca^2+). The above parameters were analyzed using an Automatic Analyzer 7080 provided by Hitachi High-Technologies Corp. (Tokyo, Japan). An Na/K/Cl Analyzer EasyLyte PLUS from Medica Corp. (Bedford, MA, USA), was used to determine the levels of chloride (Cl^−), sodium (Na^+) and potassium (K^+) in the blood samples.

[1] = 20 mg/kg/day oral, d42 (recovery)
[2] = 40 mg/kg/day oral, d0 (pre-dose)
[3] = 40 mg/kg/day oral, d42 (recovery)
[4] = 80 mg/kg/day oral, d0 (pre-dose)
[5] = 80 mg/kg/day oral, d42 (recovery)

SMILES: CCCCCCCNc1cc(/C=C/C(=O)NO)ccc1OCCN(CC)CC [HZ1006]
- ALP: Alkaline phosphatase (20 mg/kg/day oral, d28): 0.98 ± 0.27 µmol/s/L
- ALT: Alanine aminotransferase (20 mg/kg/day oral, d28): 486 ± 90 nmol/s/L
- AST: Aspartate aminotransferase (20 mg/kg/day oral, d28): 408 ± 57 nmol/s/L
- BU: Blood urea (20 mg/kg/day oral, d28): 5.37 ± 1.78 mmol/L
- CPK: Creatine phosphokinase (20 mg/kg/day oral, d28): 2.38 ± 0.53 µmol/s/L
- CREA: Creatinine (20 mg/kg/day oral, d28): 52.1 ± 10.3 µmol/L
- LDH: Lactate dehydrogenase (20 mg/kg/day oral, d28): 1.54 ± 0.74 µmol/s/L
- TBIL: Total bilirubin (20 mg/kg/day oral, d28): 2.29 ± 0.31 µmol/L
- TCH: Total cholesterol (20 mg/kg/day oral, d28): 3.95 ± 0.55 mmol/L
- TG: Triglycerides (20 mg/kg/day oral, d28): 0.34 ± 0.05 mmol/L
- ALP: Alkaline phosphatase [1]: 1.00 ± 0.24 µmol/s/L
- ALT: Alanine aminotransferase [1]: 523 ± 148 nmol/s/L
- AST: Aspartate aminotransferase [1]: 412 ± 31 nmol/s/L
- BU: Blood urea [1]: 4.05 ± 0.37 mmol/L
- CPK: Creatine phosphokinase [1]: 2.17 ± 0.30 µmol/s/L
- CREA: Creatinine [1]: 49.6 ± 0.6 µmol/L
- LDH: Lactate dehydrogenase [1]: 2.28 ± 0.93 µmol/s/L
- TBIL: Total bilirubin [1]: 1.88 ± 0.19 µmol/L
- TCH: Total cholesterol [1]: 3.81 ± 0.18 mmol/L
- TG: Triglycerides [1]: 0.33 ± 0.12 mmol/L
- ALP: Alkaline phosphatase [2]: 1.62 ± 0.40 µmol/s/L
- ALT: Alanine aminotransferase [2]: 526 ± 179 nmol/s/L
- AST: Aspartate aminotransferase [2]: 462 ± 57 nmol/s/L
- BU: Blood urea [2]: 3.95 ± 0.48 mmol/L
- CPK: Creatine phosphokinase [2]: 3.27 ± 0.76 µmol/s/L
- CREA: Creatinine [2]: 49.2 ± 6.2 µmol/L
- LDH: Lactate dehydrogenase [2]: 3.39 ± 1.55 µmol/s/L
- TBIL: Total bilirubin [2]: 2.24 ± 0.24 µmol/L
- TCH: Total cholesterol [2]: 5.38 ± 1.95 mmol/L
- TG: Triglycerides [2]: 0.41 ± 0.10 mmol/L
- ALP: Alkaline phosphatase (40 mg/kg/day oral, d14): 1.03 ± 0.32 µmol/s/L
- ALT: Alanine aminotransferase (40 mg/kg/day oral, d14): 433 ± 304 nmol/s/L
- AST: Aspartate aminotransferase (40 mg/kg/day oral, d14): 313 ± 23 nmol/s/L
- BU: Blood urea (40 mg/kg/day oral, d14): 4.52 ± 1.05 mmol/L
- CPK: Creatine phosphokinase (40 mg/kg/day oral, d14): 2.36 ± 0.19 µmol/s/L
- CREA: Creatinine (40 mg/kg/day oral, d14): 52.5 ± 6.1 µmol/L
- LDH: Lactate dehydrogenase (40 mg/kg/day oral, d14): 1.29 ± 0.68 µmol/s/L
- TBIL: Total bilirubin (40 mg/kg/day oral, d14): 1.81 ± 0.24 µmol/L
- TCH: Total cholesterol (40 mg/kg/day oral, d14): 4.47 ± 0.71 mmol/L
- TG: Triglycerides (40 mg/kg/day oral, d14): 0.41 ± 0.12 mmol/L
- ALP: Alkaline phosphatase (40 mg/kg/day oral, d28): 1.30 ± 0.24 µmol/s/L
- ALT: Alanine aminotransferase (40 mg/kg/day oral, d28): 347 ± 78 nmol/s/L
- AST: Aspartate aminotransferase (40 mg/kg/day oral, d28): 378 ± 71 nmol/s/L
- BU: Blood urea (40 mg/kg/day oral, d28): 4.66 ± 0.96 mmol/L
- CPK: Creatine phosphokinase (40 mg/kg/day oral, d28): 3.00 ± 0.94 µmol/s/L
- CREA: Creatinine (40 mg/kg/day oral, d28): 52.6 ± 9.8 µmol/L
- LDH: Lactate dehydrogenase (40 mg/kg/day oral, d28): 2.76 ± 2.49 µmol/s/L
- TBIL: Total bilirubin (40 mg/kg/day oral, d28): 2.04 ± 0.43 µmol/L
- TCH: Total cholesterol (40 mg/kg/day oral, d28): 4.66 ± 1.85 mmol/L
- TG: Triglycerides (40 mg/kg/day oral, d28): 0.43 ± 0.18 mmol/L
- ALP: Alkaline phosphatase [3]: 1.34 ± 0.34 µmol/s/L
- ALT: Alanine aminotransferase [3]: 514 ± 112 nmol/s/L
- AST: Aspartate aminotransferase [3]: 468 ± 80 nmol/s/L
- BU: Blood urea [3]: 4.87 ± 1.56 mmol/L
- CPK: Creatine phosphokinase [3]: 3.00 ± 1.32 µmol/s/L
- CREA: Creatinine [3]: 58.8 ± 2.0 µmol/L
- LDH: Lactate dehydrogenase [3]: 3.50 ± 2.49 µmol/s/L
- TBIL: Total bilirubin [3]: 1.88 ± 0.08 µmol/L
- TCH: Total cholesterol [3]: 4.55 ± 1.10 mmol/L
- TG: Triglycerides [3]: 0.45 ± 0.04 mmol/L
- ALP: Alkaline phosphatase [4]: 1.62 ± 0.49 µmol/s/L
- ALT: Alanine aminotransferase [4]: 591 ± 143 nmol/s/L
- AST: Aspartate aminotransferase [4]: 493 ± 103 nmol/s/L
- BU: Blood urea [4]: 4.38 ± 0.72 mmol/L
- CPK: Creatine phosphokinase [4]: 3.24 ± 0.77 µmol/s/L
- CREA: Creatinine [4]: 53.4 ± 5.2 µmol/L
- LDH: Lactate dehydrogenase [4]: 2.71 ± 0.97 µmol/s/L
- TBIL: Total bilirubin [4]: 2.64 ± 0.41 µmol/L
- TCH: Total cholesterol [4]: 4.03 ± 1.04 mmol/L
- TG: Triglycerides [4]: 0.38 ± 0.15 mmol/L
- ALP: Alkaline phosphatase (80 mg/kg/day oral, d14): 1.27 ± 1.15 µmol/s/L
- ALT: Alanine aminotransferase (80 mg/kg/day oral, d14): 312 ± 38 nmol/s/L
- AST: Aspartate aminotransferase (80 mg/kg/day oral, d14): 386 ± 104 nmol/s/L
- BU: Blood urea (80 mg/kg/day oral, d14): 4.66 ± 0.93 mmol/L
- CPK: Creatine phosphokinase (80 mg/kg/day oral, d14): 3.29 ± 1.86 µmol/s/L
- CREA: Creatinine (80 mg/kg/day oral, d14): 58.2 ± 4.8 µmol/L
- LDH: Lactate dehydrogenase (80 mg/kg/day oral, d14): 1.76 ± 1.85 µmol/s/L
- TBIL: Total bilirubin (80 mg/kg/day oral, d14): 2.74 ± 2.93 µmol/L
- TCH: Total cholesterol (80 mg/kg/day oral, d14): 4.62 ± 2.51 mmol/L
- TG: Triglycerides (80 mg/kg/day oral, d14): 0.56 ± 0.28 mmol/L
- ALP: Alkaline phosphatase (80 mg/kg/day oral, d28): 1.01 ± 0.27 µmol/s/L
- ALT: Alanine aminotransferase (80 mg/kg/day oral, d28): 307 ± 51 nmol/s/L
- AST: Aspartate aminotransferase (80 mg/kg/day oral, d28): 310 ± 59 nmol/s/L
- BU: Blood urea (80 mg/kg/day oral, d28): 5.25 ± 1.21 mmol/L
- CPK: Creatine phosphokinase (80 mg/kg/day oral, d28): 1.73 ± 0.24 µmol/s/L
- CREA: Creatinine (80 mg/kg/day oral, d28): 54.3 ± 8.9 µmol/L
- LDH: Lactate dehydrogenase (80 mg/kg/day oral, d28): 0.97 ± 0.30 µmol/s/L
- TBIL: Total bilirubin (80 mg/kg/day oral, d28): 2.19 ± 0.20 µmol/L
- TCH: Total cholesterol (80 mg/kg/day oral, d28): 4.16 ± 1.39 mmol/L
- TG: Triglycerides (80 mg/kg/day oral, d28): 0.45 ± 0.11 mmol/L
- ALP: Alkaline phosphatase [5]: 0.99 ± 0.14 µmol/s/L
- ALT: Alanine aminotransferase [5]: 549 ± 181 nmol/s/L
- AST: Aspartate aminotransferase [5]: 460 ± 83 nmol/s/L
- BU: Blood urea [5]: 4.93 ± 0.50 mmol/L
- CPK: Creatine phosphokinase [5]: 2.86 ± 0.53 µmol/s/L
- CREA: Creatinine [5]: 65.9 ± 11.3 µmol/L
- TBIL: Total bilirubin [5]: 1.90 ± 0.23 µmol/L
- TCH: Total cholesterol [5]: 3.52 ± 0.84 mmol/L
- TG: Triglycerides [5]: 0.40 ± 0.14 mmol/L
